Values after ≈ are worked out from the molar mass of the structure shown.
Key:
Assay in all cases: ≥ marks a high value that may be exact or a test limit, other limits are often not marked, values filed in µg/mL are converted to µM
[1] = test system: Escherichia coli KCTC 2223
[2] = test system: Salmonella typhimurium KCTC 2370
[3] = test system: Micrococcus luteus ATCC 10240
[4] = test system: Staphylococcus aureus ATCC 15752
Vibrio cholerae = test system: Vibrio cholerae
[5] = test system: Pseudomonas aeruginosa ATCC 27853
[6] = test system: Staphylococcus aureus ATCC 43300
[7] = test system: Enterococcus faecalis ATCC 29212
[8] = test system: Bacillus subtilis MTCC 14416
Escherichia coli MG1655 = test system: Escherichia coli MG1655
[9] = test system: Staphylococcus aureus MTCC 9542
[10] = test system: Salmonella typhimurium SL1344
Escherichia coli JJ2489 = test system: Escherichia coli JJ2489
Escherichia coli BW25113 = test system: Escherichia coli BW25113
[11] = test system: Salmonella enterica subsp. enterica serovar Enteritidis MH91989
[12] = test system: Escherichia coli JW0368 ΔsbmA
Escherichia coli J2210 = test system: Escherichia coli J2210
Escherichia coli MC1041 = test system: Escherichia coli MC1041
Escherichia coli JW0013 = test system: Escherichia coli JW0013
[13] = test system: Escherichia coli JW2778 ΔygdD
[14] = test system: Bacillus cereus CMCC 6303
[15] = test system: Listeria monocytogenes CMCC 54004
[16] = test system: Salmonella enterica subsp. enterica serovar Typhi CMCC 50071
[17] = test system: Salmonella enterica subsp. enterica serovar Typhimurium C77-31
[18] = test system: Salmonella enterica subsp. enterica serovar Typhimurium ATCC 14028
Escherichia coli UB1005 = test system: Escherichia coli UB1005
[19] = test system: Salmonella enterica subsp. enterica serovar Pullorum C79-13
[20] = test system: Staphylococcus aureus ATCC 25923
[21] = test system: Staphylococcus aureus CMCC 26074
[22] = test system: Cronobacter sakazakii ATCC 29544
[23] = test system: Salmonella enterica subsp. enterica CMCC 47020
[24] = test system: Escherichia coli CMCC 44102
[25] = test system: Staphylococcus epidermidis ATCC 12228
[26] = test system: Staphylococcus aureus CMCC 26003
[27] = test system: Staphylococcus epidermidis 1457
[28] = test system: Pseudomonas aeruginosa PAO1
[29] = test system: Escherichia coli ATCC 25922
[30] = test system: Staphylococcus aureus USA 200
[31] = test system: Staphylococcus aureus Newman
[32] = test system: Staphylococcus aureus UAMS-1
[33] = test system: Staphylococcus aureus MU50
[34] = test system: Candida albicans ATCC 10231
Bacillus subtilis 168 = test system: Bacillus subtilis 168
[35] = test system: Staphylococcus aureus USA 300
[36] = test system: Staphylococcus aureus USA 400
[37] = test system: Candida glabrata ATCC 2001
[38] = test system: Candida tropicalis ATCC 13803
[39] = test system: Klebsiella pneumoniae ATCC 13883

**Q.** With CC(C)C[C@H](NC(=O)[C@H](CCCCN)NC(=O)[C@H](CCC(N)=O)NC(=O)[C@H](CCCCN)NC(=O)[C@H](CC(C)C)NC(=O)[C@H](CC(C)C)NC(=O)[C@H](CCC(N)=O)NC(=O)[C@H](CC(C)C)NC(=O)[C@H](CC(C)C)NC(=O)[C@@H]1CCCN1C(=O)[C@H](CCCN=C(N)N)NC(=O)[C@H](CC(C)C)NC(=O)[C@H](CC(C)C)NC(=O)[C@H](CCCN=C(N)N)NC(=O)CNC(=O)CNC(=O)CNC(=O)[C@@H]1CCCN1C(=O)[C@@H]1CCCN1C(=O)CNC(=O)[C@H](CCCN=C(N)N)NC(=O)[C@@H](NC(=O)[C@H](CCCCN)NC(=O)[C@@H](N)CCCN=C(N)N)C(C)C)C(=O)N[C@@H](CCCN=C(N)N)C(=O)O [RKVRGPPGGGRLLRPLLQLLKQKLR] as the compound, how does the MIC [1] read?
**A.** 2 µM (≈ 5.7 µg/mL)

**Q.** What about the MIC [2] of the same compound?
**A.** 4 µM (≈ 11.4 µg/mL)

**Q.** What about the MIC [3] of the same compound?
**A.** 0.5 µM (≈ 1.43 µg/mL)

**Q.** What about the MIC [4] of the same compound?
**A.** 2 µM (≈ 5.7 µg/mL)

**Q.** Which MIC (Vibrio cholerae) does the source give for CC[C@H](C)[C@@H]1NC(=O)[C@H](CCCCN)NC(=O)[C@@H](NC(=O)[C@H](CC(C)C)NC(=O)[C@@H](NC(=O)[C@H](CCC(N)=O)NC(=O)[C@@H]2CCCN2C(=O)[C@H](CC(C)C)NC(=O)[C@H](Cc2ccccc2)NC(=O)[C@H](CC(N)=O)NC(=O)[C@H](C)NC(=O)[C@H](C)NC(=O)[C@@H](N)CC(C)C)[C@@H](C)CC)CSSC[C@@H](C(N)=O)NC(=O)[C@H](CCCCN)NC(=O)[C@H](CCCN=C(N)N)NC(=O)[C@H](C)NC1=O [LAANFLPQILCKIARKC] here?
**A.** 6.57 µM (≈ 12.5 µg/mL)

**Q.** What about the MIC [5] of the same compound?
**A.** > 52.6 µM

**Q.** What about the MIC [6] of the same compound?
**A.** 26.3 µM (≈ 49.9 µg/mL)

**Q.** And the MIC [7]?
**A.** 52.6 µM (≈ 99.8 µg/mL)

**Q.** What about the MIC [8] of the same compound?
**A.** 26.3 µM (≈ 49.9 µg/mL)

**Q.** What about the MIC (Escherichia coli MG1655) of the same compound?
**A.** 6.57 µM (≈ 12.5 µg/mL)

**Q.** What about the MIC [9] of the same compound?
**A.** 3.23 µM (≈ 6.14 µg/mL)

**Q.** Which results are given for CC[C@H](C)[C@H](NC(=O)[C@H](Cc1ccc(O)cc1)NC(=O)[C@@H](NC(=O)[C@@H]1CCCN1C(=O)[C@H](CCCCN)NC(=O)[C@H](CC(N)=O)NC(=O)[C@H](CC(N)=O)NC(=O)CN)C(C)C)C(=O)N1CCC[C@H]1C(=O)N[C@@H](CCC(N)=O)C(=O)N1CCC[C@H]1C(=O)N[C@@H](CCCN=C(N)N)C(=O)N1CCC[C@H]1C(=O)N1CCC[C@H]1C(=O)N[C@@H](CCCN=C(N)N)C(=O)N1CCC[C@H]1C(=O)N[C@@H](CCCN=C(N)N)C(=O)N[C@@H](CC(C)C)C(=O)O [GNNKPVYIPQPRPPRPRL]?
**A.** MIC [10]: 0.126 µM (≈ 0.265 µg/mL); MIC (Escherichia coli JJ2489): 0.067 µM (≈ 0.141 µg/mL); MIC (Escherichia coli BW25113): 0.048 µM (≈ 0.101 µg/mL); MIC [11]: 0.067 µM (≈ 0.141 µg/mL); MIC [12]: 0.384 µM (≈ 0.806 µg/mL); MIC (Escherichia coli J2210): 0.133 µM (≈ 0.279 µg/mL); MIC (Escherichia coli MC1041): 0.096 µM (≈ 0.202 µg/mL); MIC (Escherichia coli JW0013): 0.048 µM (≈ 0.101 µg/mL); MIC [13]: 0.096 µM (≈ 0.202 µg/mL)

**Q.** With CC[C@H](C)[C@H](NC(=O)[C@H](CCCN=C(N)N)NC(=O)[C@H](Cc1c[nH]c2ccccc12)NC(=O)[C@H](CCCCN)NC(=O)[C@@H](N)CCCN=C(N)N)C(=O)N[C@H](C(=O)N[C@H](C(=O)N[C@H](C(=O)N[C@@H](CCCN=C(N)N)C(=O)N[C@H](C(=O)N[C@@H](CCCN=C(N)N)C(=O)N[C@@H](CCCN=C(N)N)C(N)=O)C(C)C)[C@@H](C)CC)C(C)C)C(C)C [RKWRIVVIRVRR] as the compound, how does the MIC [14] read?
**A.** 16 µM (≈ 26.2 µg/mL)

**Q.** What about the MIC [15] of the same compound?
**A.** 2 µM (≈ 3.27 µg/mL)

**Q.** And the MIC [16]?
**A.** 8 µM (≈ 13.1 µg/mL)

**Q.** What about the MIC [17] of the same compound?
**A.** ≥ 32 µM

**Q.** What about the MIC [18] of the same compound?
**A.** 32 µM (≈ 52.4 µg/mL)

**Q.** What about the MIC (Escherichia coli UB1005) of the same compound?
**A.** 8 µM (≈ 13.1 µg/mL)

**Q.** And the MIC [19]?
**A.** 8 µM (≈ 13.1 µg/mL)

**Q.** And the MIC [20]?
**A.** 128 µM (≈ 209 µg/mL)

**Q.** And the MIC [21]?
**A.** ≥ 256 µM

**Q.** What about the MIC [22] of the same compound?
**A.** ≥ 32 µM

**Q.** What about the MIC [23] of the same compound?
**A.** ≥ 64 µM

**Q.** For CC[C@H](C)[C@H](NC(=O)[C@H](CCCN=C(N)N)NC(=O)[C@H](CCCN=C(N)N)NC(=O)[C@H](CC(C)C)NC(=O)[C@H](Cc1ccccc1)NC(=O)[C@@H]1CCCN1C(=O)[C@H](CCCN=C(N)N)NC(=O)[C@H](CCSC)NC(=O)[C@@H](NC(=O)[C@H](CCCCN)NC(=O)[C@H](CCCCN)NC(=O)[C@H](CS)NC(=O)[C@@H](NC(=O)CNC(=O)[C@H](CCCN=C(N)N)NC(=O)[C@H](CC(C)C)NC(=O)[C@@H](NC(=O)[C@@H](N)CCCCN)[C@@H](C)CC)C(C)C)[C@@H](C)CC)C(=O)N[C@@H](CO)C(=O)N[C@@H](CCCCN)C(=O)N[C@@H](CC(=O)O)C(=O)N[C@H](C(=O)N[C@@H](CC(C)C)C(=O)N[C@H](C(=O)NCC(=O)N[C@@H](CCCCN)C(=O)N[C@@H](CCCCN)C(N)=O)[C@@H](C)O)[C@@H](C)CC [KILRGVCKKIMRPFLRRISKDILTGKK], which MIC [24] is on record?
**A.** 4 µM (≈ 12.8 µg/mL)

**Q.** What about the MIC [5] of the same compound?
**A.** 16 µM (≈ 51.2 µg/mL)

**Q.** And the MIC [25]?
**A.** 4 µM (≈ 12.8 µg/mL)

**Q.** And the MIC [26]?
**A.** 4 µM (≈ 12.8 µg/mL)

**Q.** Which results are given for CC[C@H](C)[C@H](NC(=O)CNC(=O)[C@H](CO)NC(=O)[C@@H](NC(=O)[C@H](CC(C)C)NC(=O)[C@H](CCCN=C(N)N)NC(=O)CNC(=O)[C@@H](NC(=O)[C@@H](NC(=O)[C@@H]1CCCN1C(=O)[C@H](CC(C)C)NC(=O)[C@@H](N)Cc1ccccc1)[C@@H](C)CC)C(C)C)[C@@H](C)CC)C(=O)N[C@@H](CC(C)C)C(N)=O [FLPIVGRLISGIL]?
**A.** MIC [27]: 12.5 µM (≈ 17.5 µg/mL); MIC [28]: > 50 µM; MIC [29]: > 50 µM; MIC [30]: 25 µM (≈ 34.9 µg/mL); MIC [31]: 12.5 µM (≈ 17.5 µg/mL); MIC [32]: 25 µM (≈ 34.9 µg/mL); MIC [33]: 12.5 µM (≈ 17.5 µg/mL); MIC [34]: 50 µM (≈ 69.8 µg/mL); MIC (Bacillus subtilis 168): ≥ 35.4 µM; MIC [35]: 12.5 µM (≈ 17.5 µg/mL); MIC [36]: 12.5 µM (≈ 17.5 µg/mL); MIC [37]: ≥ 50 µM; MIC [38]: 8.8 µM (≈ 12.3 µg/mL); MIC [39]: ≥ 50 µM

Source: DBAASP
